From patent US20250163006A1, “New Coolants, and Preparations Containing Same” (Symrise AG, priority 2022, published 2025)
Where two headings read alike, the source gives them in different places.

Target: T1, human TRPM8 receptor (Homo sapiens, UniProt Q7Z2W7)
T1 construct: expressed in transfected cells; host or cells: HEK293, stably transfected, tetracycline-inducible expression
Experiment: Assay on TRPM8 modulators: Ca2+-sensitive dye (Fluo-4) fluorescence in HEK293-TRPM8 test cells
Type: cell-based
Parameters: relative TRPM8 activation: concentration or dose not given beside the values
Conditions: for relative TRPM8 activation: HEK293 cells recombinantly expressing human TRPM8; for EC50: HEK293-TRPM8 cells
Text: The starting point for cloning the human TRPM8 receptor is an LnCaP cDNA bank. This is commercially available (e.g. BioChain, Hayward, USA) or can be produced from the andro gene-sensitive human prostate adenocarcinoma cell line LnCaP (e.g. ATCC, CRL1740 or ECACC, 891 1021 1) using standard kits.
The coding TRPM8 sequence (see e.g. http://www. ncbi.nlm.nih.gov/entrez/viewer.fcgi?db=nuccore&id=109689694) can be PCR-amplified and cloned using standard methods. The human TRPM8 gene isolated in this way was used to produce the plasmid plnd_M8. Alternatively, the TRPM8 gene can also be produced synthetically.
A stably transfected HEK293 cell line was produced as a test cell system using human TRPM8 DNA. Preference was given to HEK293, which offers the possibility of inducing TRPM8 expression using tetracycline via the plasmid introduced.
A test similar to the test already described in the literature by Behrendt H. J. et al, Br. J. Pharmacol. 141, 2004, 737-745, is performed. The agonization or antagonization of the receptor can be quantified using a Ca^2+-sensitive dye (e.g. FURA, Fluo-4 etc.). Agonists alone cause an increase in the Ca^2+ signal; antagonists cause a reduction in the Ca^2+ signal in the presence of e.g. menthol (detected in each case using the Fluo-4 dye, which has different fluorescence properties due to Ca^2+ ions).
First, a fresh culture of transformed HEK cells is prepared in cell culture flasks in the usual way. The HEK293-TRPM8 test cells are detached from the cell culture flasks using trypsin and 40,000 cells/well are seeded with 100 μl medium in 96-well plates (Greiner #655948 poly-D-lysine-coated). To induce the TRPM8 receptor, tetracycline is added to the growth medium (DMEM/HG, 10% FCS tetracycline-free, 4 mM L-glutamine, 15 μg/ml blasticidin, 100 μg/ml hygromycin B, 1 μg/ml tetracycline).
On the following day, the cells are loaded with Fluo-4AM dye and the test is performed. Proceed as follows: Addition of 100 μl/well staining solution Ca-4 kit (RB 141, Molecular Devices) to each 100 μl medium (DMEM/HG, 10% FCS tetracycline-free, 4 mM L-glutamine, 15 μg/ml blasticidin, 100 μg/ml hygromycin B, 1 μg/ml tetracycline).
Incubation in incubator, 30 minutes/37° C./5% CO2, 30 minutes/RT.
Preparation of the test substances (different concentrations in 200 μl HBSS buffer), as well as positive controls (different concentrations of menthol, icilin or lonomycin in 200 μl HBSS buffer) and negative controls (only 200 μl HBSS buffer) Addition of the test substances in quantities of 50 μl/well and measurement of the fluorescence change (e.g. in the assay device FLIPR, Molecular Devices or NovoStar, BMG) at 485 nm excitation, 520 nm emission, and evaluation of the potency of the different substances/concentrations and determination of the ECG. e.g. in the FLIPR assay device, Molecular Devices or NovoStar, BMG) at 485 nm excitation, 520 nm emission, and evaluation of the potency of the various substances/concentrations and determination of the EC50 values.
The test substances are used in triplicates in concentrations of 0.1-200 μM in the assay. Normally, the compounds are kept ready in DMSO solutions and diluted down to a maximum DMSO concentration of 2% for the assay.
The activity of the active substances in relation to activation of the TRPM8 channel is determined using the assay described. This is done in a concentration-dependent manner. For each active substance, 6 to 10 concentrations are measured as standard. A mathematical method (4-parameter or 5-parameter logistic curve fitting) can be used to determine the EC50 value as the inflection point of the sigmoidal curve from the activity values determined. These are standard biochemical methods that are familiar to experts.

T1 sequence (Q7Z2W7 whole entry): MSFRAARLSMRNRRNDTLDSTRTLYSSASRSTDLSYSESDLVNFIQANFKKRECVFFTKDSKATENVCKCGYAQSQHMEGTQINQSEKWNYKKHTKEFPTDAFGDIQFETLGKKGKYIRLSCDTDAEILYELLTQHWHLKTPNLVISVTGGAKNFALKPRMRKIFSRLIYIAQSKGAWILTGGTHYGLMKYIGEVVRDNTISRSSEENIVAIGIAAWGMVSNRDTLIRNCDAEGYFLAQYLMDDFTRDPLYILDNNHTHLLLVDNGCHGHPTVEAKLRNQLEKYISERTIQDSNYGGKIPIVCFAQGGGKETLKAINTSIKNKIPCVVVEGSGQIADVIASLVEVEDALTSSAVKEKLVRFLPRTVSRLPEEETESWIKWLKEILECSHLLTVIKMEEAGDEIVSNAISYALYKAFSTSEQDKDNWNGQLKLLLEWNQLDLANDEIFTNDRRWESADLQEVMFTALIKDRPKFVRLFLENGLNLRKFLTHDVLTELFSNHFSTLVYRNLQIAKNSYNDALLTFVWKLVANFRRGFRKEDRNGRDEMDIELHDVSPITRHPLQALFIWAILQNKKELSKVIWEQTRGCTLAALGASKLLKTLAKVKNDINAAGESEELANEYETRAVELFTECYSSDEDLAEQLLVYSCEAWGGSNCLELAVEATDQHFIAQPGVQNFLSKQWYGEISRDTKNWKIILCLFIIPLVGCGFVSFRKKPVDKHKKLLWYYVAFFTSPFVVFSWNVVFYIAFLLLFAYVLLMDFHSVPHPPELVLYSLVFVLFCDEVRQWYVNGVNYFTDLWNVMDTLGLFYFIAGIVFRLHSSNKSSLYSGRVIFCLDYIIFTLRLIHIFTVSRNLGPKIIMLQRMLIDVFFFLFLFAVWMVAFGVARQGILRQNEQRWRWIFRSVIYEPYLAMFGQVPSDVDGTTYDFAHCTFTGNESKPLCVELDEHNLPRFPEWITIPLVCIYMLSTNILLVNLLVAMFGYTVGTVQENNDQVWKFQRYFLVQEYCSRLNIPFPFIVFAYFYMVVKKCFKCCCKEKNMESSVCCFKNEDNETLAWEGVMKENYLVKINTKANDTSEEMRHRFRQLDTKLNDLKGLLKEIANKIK

Row | relative TRPM8 activation [%] | Compound | also measured
1 | 56 | CNC(=O)CCSc1nnc(-c2ccccc2)c(-c2ccccc2)n1 [Compound B-26, 3-[(5,6-diphenyl-1,2,4-triazin-3-yl)sulfanyl]-N-methyl-propanamide] | 
2 | 73 | CN(C)C(=O)CSc1cnc(-c2ccccc2)c(-c2ccccc2)n1 [Compound B-23, 2-(5,6-diphenylpyrazin-2-yl)sulfanyl-N,N-dimethyl-acetamide] | 
3 | 53 | CC(Sc1nnc(-c2ccccc2)c(-c2ccccc2)n1)C(=O)NCc1ccco1 (centres unmarked) [Compound B-28, 2-[(5,6-diphenyl-1,2,4-triazin-3-yl)sulfanyl]-N-(2-furylmethyl)propanamide] | 
4 | 5 | CCC(=O)CCc1nc(-c2ccccc2)c(-c2ccccc2)o1 [Compound A-40, 1-(4,5-diphenyloxazol-2-yl)pentan-3-one] | 
5 |  | CNC(=O)C(C)Sc1nc(-c2ccccc2)c(-c2ccccc2)o1 (centres unmarked) [Compound A-03, 2-(4,5-diphenyloxazol-2-yl)sulfanylpropa noyl-methyl-ammonium; chloride] | EC50 (TRPM8 activation, 6 to 10 concentrations, logistic curve fitting, read-out: EC50 value): ≤ 1 µM; EC50 (Table 6, read-out: TRPM8 EC50): 0.01 µM; EC50 (Table 8, read-out: TRPM8 EC50): 0.01 µM
6 | −3 | CN(C)c1nc(-c2ccccc2)c(-c2ccccc2)o1 [Compound A-71, N,N-dimethyl-4,5-diphenyl-oxazol-2-amine] | 
7 | 3 | CNC(=O)COc1nnc(-c2ccccc2)c(-c2ccccc2)n1 [Compound B-52, 2-[(5,6-diphenyl-1,2,4-triazin-3-yl)oxy]-N-methyl-acetamide] | 
8 | 37 | CC(Sc1nnc(-c2ccccc2)c(-c2ccccc2)n1)C(=O)NCC1CCCO1 (centres unmarked) [Compound B-32, 2-[(5,6-diphenyl-1,2,4-triazin-3-yl)sulfanyl]-N-(tetrahydrofuran-2-ylmethyl)propanamide] | 
9 | 2 | CNC(=O)C(C)Sc1nc(-c2ccccc2)c(-c2ccccc2)[nH]1 (centres unmarked) [Compound A-47, 2-[(4,5-diphenyl-1H-imidazol-2-yl)sulfanyl]-N-methyl-propanamide] | 
10 | 2 | COCCNc1nnc(-c2ccccc2)c(-c2ccccc2)n1 [Compound B-55, N-(2-methoxyethyl)-5,6-diphenyl-1,2,4-triazin-3-amine] | 
11 |  | CC(Sc1nnc(-c2ccccc2)c(-c2ccccc2)n1)C(=O)N1CCCC1 (centres unmarked) [Compound B-18, 2-[(5,6-diphenyl-1,2,4-triazin-3-yl)sulfanyl]-1-pyrrolidin-1-yl-propan-1-one] | EC50 (Table 5, read-out: TRPM8 EC50): 5.36 µM; EC50 (Table 7, read-out: TRPM8 EC50): 5.36 µM
12 | 2 | OCC(O)CNc1nnc(-c2ccccc2)c(-c2ccccc2)n1 (centres unmarked) [Compound B-54, 3-[(5,6-diphenyl-1,2,4-triazin-3-yl)amino]propane-1,2-diol] | 
13 | 41 | COCCSc1nnc(-c2ccccc2)c(-c2ccccc2)n1 [Compound B-30, 3-(2-methoxyethyl-sulfanyl)-5,6-diphenyl-1,2,4-triazine] | 
14 | 6 | O=C(CSc1nc(-c2ccccc2)c(-c2ccccc2)o1)NC1CCCC1 [Compound A-38, N-cyclopentyl-2-(4,5-diphenyloxazol-2-yl)sulfanyl-acetamide] | 
15 | 70 | CSCC(=O)N1CCCCC1c1nc(-c2ccccc2)c(-c2ccccc2)o1 (centres unmarked) [Compound A-21, 1-[2-(4,5-diphenyloxazol-2-yl)-1-piperidyl]-2-methylsulfanyl-ethanone] | 
16 | 5 | CNC(=O)C(C)Sc1nnc(-c2ccc(O)cc2)c(-c2ccc(O)cc2)n1 (centres unmarked) [Compound B-45, 2-[[5,6-bis(4-hydroxyphenyl)-1,2,4-triazin-3-yl]sulfanyl]-N-methyl-propanamide] | 
17 | 16 | CN(C)C(=O)CCc1nc(-c2ccccc2)c(-c2ccccc2)o1 [Compound A-34, 3-(4,5-diphenyloxazol-2-yl)-N,N-dimethyl-propanamide] | 

Row | relative TRPM8 activation [%] | Compound | also measured
18 |  | CCNC(=O)CSc1nc(-c2ccccc2)c(-c2ccccc2)o1 [Compound A-17, 2-(4,5-diphenyloxazol-2-yl)sulfanyl-N-ethyl-acetamide] | EC50 (Table 6, read-out: TRPM8 EC50): 5.85 µM; EC50 (Table 8, read-out: TRPM8 EC50): 5.85 µM
19 | 0 | CCC(=O)CSc1nc(-c2ccccc2)c(-c2ccccc2)o1 [Compound A-61, 1-(4,5-diphenyloxazol-2-yl)sulfanylbutan-2-one] | 
20 | 1 | CNC(=O)C(C)Sc1nnc(C)c(C)n1 (centres unmarked) [Compound B-60, 2-[(5,6-dimethyl-1,2,4-triazin-3-yl)sulfanyl]-N-methyl-propanamide] | 
21 | 56 | CC(=O)NCCc1nc(-c2ccccc2)c(-c2ccccc2)o1 [Compound A-24, N-[2-(4,5-diphenyloxazol-2-yl)ethyl] acetamide] | EC50 (Table 6, read-out: TRPM8 EC50): 11.3 µM; EC50 (Table 8, read-out: TRPM8 EC50): 11.3 µM
22 | 1 | OCCNc1nnc(-c2ccccc2)c(-c2ccccc2)n1 [Compound B-58, 2-[(5,6-diphenyl-1,2,4-triazin-3-yl)amino]ethanol] | 
23 | 62 | CN(C)CCSc1nc(-c2ccccc2)c(-c2ccccc2)o1 [Compound A-23, 2-(4,5-diphenyloxazol-2-yl)sulfanyl-N,N-dimethyl-ethanamine] | 
24 | −2 | COC(=O)C(C)Nc1nnc(-c2ccccc2)c(-c2ccccc2)n1 (centres unmarked) [Compound B-63, methyl 2-[(5,6-diphenyl-1,2,4-triazin-3-yl)amino]propanoate] | 
25 | 1 | CC(=O)OCCSc1nc(-c2ccccc2)c(-c2ccccc2)o1 [Compound A-57, 2-(4,5-diphenyloxazol-2-yl)sulfanylethyl acetate] | 
26 | 0 | Cc1ccc(-c2nnc(SCC(=O)NC3CC3)nc2-c2ccc(C)cc2)cc1 [Compound B-62, 2-[[5,6-bis(p-tolyl)-1,2,4-triazin-3-yl]sulfanyl]-N-cyclopropyl-acetamide] | 
27 | 42 | CN(C(=O)CSc1nc(-c2ccccc2)c(-c2ccccc2)o1)C1CC1 [Compound A-27, N-cyclopropyl-2-(4,5-diphenyloxazol-2-yl)sulfanyl-N-methyl-acetamide] | EC50 (Table 6, read-out: TRPM8 EC50): 18 µM; EC50 (Table 8, read-out: TRPM8 EC50): 18 µM
28 | 11 | Cc1ccc(-c2nnc(SC(C)C(=O)N3CCCC3)nc2-c2ccc(C)cc2)cc1 (centres unmarked) [Compound B-38, 2-[[5,6-bis(p-tolyl)-1,2,4-triazin-3-yl]sulfanyl]-1-pyrrolidin-1-yl-propan-1-one] | 
29 | 8 | CN(C)CCOc1nnc(-c2ccccc2)c(-c2ccccc2)n1 [Compound B-42, 2-[(5,6-diphenyl-1,2,4-triazin-3-yl)oxy]-N,N-dimethyl-ethanamine] | 
30 | 25 | CCC(=O)CSc1nnc(-c2ccccc2)c(-c2ccccc2)n1 [Compound B-33, 1-[(5,6-diphenyl-1,2,4-triazin-3-yl)sulfanyl]butan-2-one] | 
31 | 5 | CC(Sc1nnc(-c2ccccc2)c(-c2ccccc2)n1)C(=O)O (centres unmarked) [Compound B-44, 2-[(5,6-diphenyl-1,2,4-triazin-3-yl)sulfanyl]propanoic acid] | 
32 | −1 | CNC(=O)CSc1ncc(-c2ccccc2)[nH]1 [Compound A-64] | 
33 | 3 | c1ccc(-c2nc(C3CCCCN3)oc2-c2ccccc2)cc1 (centres unmarked) [Compound A-44, 4,5-diphenyl-2-(2-piperidyl)oxazole] | 
